In paper PMC4719150 (Biochemistry, 2015):
Read-outs that look alike come from different tables or passages of the source. Numbered stars: 1 amine (or outer) side, 2 acyl side, 3 side chain; on linkers, the order of the positions; unused ones are H or OH. Bridge positions count the residues as written; N and C are the ends. Square brackets hold non-standard residues; d marks the D form. Peptide text beside a SMILES is read from it. I, II: the chains in the order shown. Actinocin(9to1) = Cc1c2oc3c(C)ccc(C(=O)[*:1])c3nc-2c(C(=O)[*:2])c(N)c1=O; NMeV = CN[C@H](C(=O)O)C(C)C; Sar = CNCC(=O)O

What was measured:
[1] = tested on: recRSV-L19FD489E-fireSMASh; assay: Peak progeny virus titers after incubation with ASV; format: cell-based, respiratory syncytial virus; conditions: 3 μM ASV versus vehicle
[2] = tested on: fireSMASh (firefly luciferase fused to SMASh tag); assay: Firefly luciferase activity after virus growth in the presence of ASV; format: cell-based; conditions: growth of recRSV-L19FD489E-fireSMASh in the presence of 3 μM ASV; 44 hours post-infection
recIAV WSN-NanoLuc [3] = assay: microbe, parasite or virus in culture; format: cell-based; conditions: Influenza A virus, BEAS-2B, 40 h, read-out: % Inhibition (anti-IAV)
in vitro = conditions: human
recRSV A2-L19F-renilla = assay: microbe, parasite or virus in culture; format: cell-based; conditions: human respiratory syncytial virus, BEAS-2B, read-out: EC50 RSV A2-L19F-renilla
recIAV WSN-NanoLuc [4] = assay: microbe, parasite or virus in culture; conditions: Influenza A virus, BEAS-2B, read-out: EC50 IAV WSN-nanoLuc
[5] = tested on: recRSV A2-L19FD489E-fireSMASh; conditions: for EC50: read-out: EC50 RSV A2-L19FD489E-fireSMASh
recIAV WSN-NanoLuc [6] = conditions: for EC50: read-out: EC50 IAV WSN-nanoLuc
BEAS-2B cells = conditions: uninfected BEAS-2B cells, highest concentration assessed 10 μM, tox = less than 50% cell viability after 44 hours at ≤10 μM; for CC50: read-out: CC50 (PrestoBlue cell viability)

C=C[C@@H]1C[C@]1(NC(=O)[C@@H]1C[C@@H](Oc2ncc(OC)c3ccc(Cl)cc23)CN1C(=O)[C@@H](NC(=O)OC(C)(C)C)C(C)(C)C)C(=O)NS(=O)(=O)C1CC1 [ASV, Asunaprevir]
effect on progeny virus titers [1]: no effect | reduction of firefly luciferase activity [2]: approximately 90%

Cc1c2oc3c(C)ccc(C(=O)N[C@@H]4C(=O)N[C@H](C(C)C)C(=O)N5CCC[C@H]5C(=O)N(C)CC(=O)N(C)[C@@H](C(C)C)C(=O)O[C@@H]4C)c3nc-2c(C(=O)N[C@@H]2C(=O)N[C@H](C(C)C)C(=O)N3CCC[C@H]3C(=O)N(C)CC(=O)N(C)[C@@H](C(C)C)C(=O)O[C@@H]2C)c(N)c1=O [Actinomycin D] (I: T[dV]P[Sar][NMeV] / II: T[dV]P[Sar][NMeV]; ester I:1-I:C, II:1-II:C; linker I:N-II:N via Actinocin(9to1))
inhibition at 5 µM (recIAV WSN-NanoLuc [3]): 104 ± 1.5%

Nc1nc(N)c2nc(CNc3ccc(C(=O)N[C@@H](CCC(=O)O)C(=O)O)cc3)cnc2n1 [Aminopterin]
CC50 (in vitro): 10 µM | EC50 (recRSV A2-L19F-renilla): 0.05 µM | EC50 (recIAV WSN-NanoLuc [4]): 0.09 µM | SI RSV [CC50/EC50] [5]: SIIAV 111 SIRSV 143 conf. broad spectrum [79], [80] | SI IAV [CC50/EC50] (recIAV WSN-NanoLuc [6]): SIIAV 111 SIRSV 143 conf. broad spectrum [79], [80]

CC(=O)OC[C@H]1O[C@@H]([S-])[C@H](OC(C)=O)[C@@H](OC(C)=O)[C@@H]1OC(C)=O.CCP(CC)CC.[Au+] [Auranofin]
CC50 (PrestoBlue cell viability) (BEAS-2B cells): tox^d

COc1cc2nc(N3CCCN(C)CC3)nc(NC3CCN(Cc4ccccc4)CC3)c2cc1OC [BIX 01294]
CC50 (in vitro): > 10 µM | EC50 RSV A2-L19FD489E-fireSMASh [5]: inactive^e | EC50 IAV WSN-nanoLuc (recIAV WSN-NanoLuc [6]): inactive^e

O=C1C(=Cc2ccccc2)C[C@@]2(O)[C@H]3Cc4ccc(O)c5c4[C@@]2(CCN3CC2CC2)[C@H]1O5 [BNTX-7]
SI RSV [CC50/EC50] [5]: SIRSV >4 | EC50 [5]: 2.5 µM | EC50 IAV WSN-nanoLuc (recIAV WSN-NanoLuc [6]): inactive^e | effect on IAV reporter strain (recIAV WSN-NanoLuc [6]): unaffected | CC50 (BEAS-2B cells): > 10 µM

Cc1c(-c2ccc(-c3ccccc3F)cc2)nc2ccc(F)cc2c1C(=O)O [Brequinar]
CC50 (in vitro): > 10 µM | EC50 (recRSV A2-L19F-renilla): 1.8 µM | EC50 (recIAV WSN-NanoLuc [4]): 2.6 µM | SI RSV [CC50/EC50] [5]: SIIAV >3.8 SIRSV >6.3 conf. broad spectrum [81], [82] | SI IAV [CC50/EC50] (recIAV WSN-NanoLuc [6]): SIIAV >3.8 SIRSV >6.3 conf. broad spectrum [81], [82]

CNc1ccc2oc(C[C@H]3O[C@@]4(CC[C@H]3C)O[C@H]([C@H](C)C(=O)c3ccc[nH]3)[C@H](C)C[C@H]4C)nc2c1C(=O)O [Calcimycin]
CC50 (PrestoBlue cell viability) (BEAS-2B cells): tox^d

CCCCCCCCCCCCCCCCCCOCC(COP(=O)([O-])OCC[N+](C)(C)C)OC (centres unmarked) [ET-18-OCH3]
EC50 RSV A2-L19FD489E-fireSMASh [5]: inactive^e | EC50 IAV WSN-nanoLuc (recIAV WSN-NanoLuc [6]): inactive^e | CC50 (BEAS-2B cells): > 10 µM

CC[C@H]1CN2CCc3cc(OC)c(OC)cc3[C@@H]2C[C@@H]1C[C@H]1NCCc2cc(OC)c(OC)cc21 [Emetine]
CC50 (PrestoBlue cell viability) (BEAS-2B cells): tox^d

COc1cccc2c1C(=O)c1c(O)c3c(c(O)c1C2=O)C[C@@](O)(C(=O)CO)C[C@@H]3O[C@H]1C[C@H](N)[C@@H](O)[C@H](C)O1 [Epirubicin]
inhibition at 5 µM (recIAV WSN-NanoLuc [3]): 75 ± 3.1%

COc1cc([C@@H]2c3cc4c(cc3[C@@H](O[C@@H]3O[C@@H]5CO[C@@H](C)O[C@H]5[C@H](O)[C@H]3O)[C@H]3COC(=O)[C@H]23)OCO4)cc(OC)c1O [Etoposide]
inhibition at 5 µM (recIAV WSN-NanoLuc [3]): 56 ± 5.6%

CC1=C(/C=C/C(C)=C/C=C/C(C)=C/C(=O)Nc2ccc(O)cc2)C(C)(C)CCC1 [Fenretinide]
CC50 (in vitro): > 10 µM | EC50 (recRSV A2-L19F-renilla): 4.8 µM | SI RSV [CC50/EC50] [5]: SIRSV >2.8 Dengue [62], HIV [61] | EC50 IAV WSN-nanoLuc (recIAV WSN-NanoLuc [6]): inactive^e | effect on IAV reporter strain (recIAV WSN-NanoLuc [6]): unaffected

Nc1ccn([C@@H]2O[C@H](CO)[C@@H](O)C2(F)F)c(=O)n1 [Gemcitabine]
CC50 (in vitro): > 10 µM | EC50 (recRSV A2-L19F-renilla): 0.05 µM | EC50 (recIAV WSN-NanoLuc [4]): 0.1 µM | SI RSV [CC50/EC50] [5]: SIIAV >100 SIRSV >111 HIV, IAV [49], [50] | SI IAV [CC50/EC50] (recIAV WSN-NanoLuc [6]): SIIAV >100 SIRSV >111 HIV, IAV [49], [50]

COC(=O)C[C@](O)(CCCC(C)(C)O)C(=O)O[C@@H]1C(OC)=C[C@]23CCCN2CCc2cc4c(cc2[C@H]13)OCO4 [Homoharringtonine]
inhibition at 5 µM (recIAV WSN-NanoLuc [3]): 90 ± 2.6%

CC(=O)[C@]1(O)Cc2c(O)c3c(c(O)c2[C@@H](O[C@H]2C[C@H](N)[C@H](O)[C@H](C)O2)C1)C(=O)c1ccccc1C3=O [Idarubicin]
inhibition at 5 µM (recIAV WSN-NanoLuc [3]): 97 ± 1% | CC50 (PrestoBlue cell viability) (BEAS-2B cells): tox^d

Oc1ccc(/C=C/c2ccc(/C=C/c3ccc(O)cc3)c(Br)c2)cc1 [K114]
EC50 RSV A2-L19FD489E-fireSMASh [5]: inactive^e | EC50 IAV WSN-nanoLuc (recIAV WSN-NanoLuc [6]): inactive^e | CC50 (BEAS-2B cells): > 10 µM

Nc1nc2c(c(=O)[nH]1)C[C@@H](CCc1ccc(C(=O)N[C@@H](CCC(=O)O)C(=O)O)cc1)CN2 [Lometrexol]
CC50 (PrestoBlue cell viability) (BEAS-2B cells): tox^d

CN(Cc1cnc2nc(N)nc(N)c2n1)c1ccc(C(=O)N[C@@H](CCC(=O)O)C(=O)O)cc1 [Methotrexate]
inhibition at 5 µM (recIAV WSN-NanoLuc [3]): 100 ± 0.6%

CCOC(=O)C1=C(C)NC(C)=C(C(=O)OC)C1c1cccc([N+](=O)[O-])c1 (centres unmarked) [Nitrendipine]
CC50 (in vitro): > 10 µM | EC50 RSV A2-L19FD489E-fireSMASh [5]: inactive^e | EC50 IAV WSN-nanoLuc (recIAV WSN-NanoLuc [6]): inactive^e

Cn1c(=O)c(-c2c(Cl)cccc2Cl)cc2cnc(Nc3ccc(N4CCOCC4)cc3)nc21 [PD173952]
CC50 (PrestoBlue cell viability) (BEAS-2B cells): tox^d

CCN(CC)CCOc1ccc(Nc2ncc3cc(-c4c(Cl)cccc4Cl)c(=O)n(C)c3n2)cc1 [PD-166285]
CC50 (PrestoBlue cell viability) (BEAS-2B cells): tox^d

Nc1nc2c(ncn2CCOCP(=O)(O)O)c(=O)[nH]1 [PMEG]
SI RSV [CC50/EC50] [5]: SIIAV 50 SIRSV 100 HPV [67] | potency against RSV relative to IAV [5]: approximately 2 fold | EC50 [5]: 0.1 µM | SI IAV [CC50/EC50] (recIAV WSN-NanoLuc [6]): SIIAV 50 SIRSV 100 HPV [67] | EC50 (recIAV WSN-NanoLuc [6]): 0.2 µM | CC50 (BEAS-2B cells): 10 µM

c1cnc2c(c1)ccc1cccnc12 [Phenanthroline]
CC50 (in vitro): 2.4 µM

Cc1nc2ccc(CN(C)c3ccc(C(=O)N[C@@H](CCC(=O)O)C(=O)O)s3)cc2c(=O)[nH]1 [Raltitrexed]
inhibition at 5 µM (recIAV WSN-NanoLuc [3]): 60 ± 6.5%

NC(=O)c1ncn([C@@H]2O[C@H](CO)[C@@H](O)[C@H]2O)n1 [Ribavirin]
CC50 (in vitro): > 10 µM | EC50 (recRSV A2-L19F-renilla): 2.9 µM | EC50 (recIAV WSN-NanoLuc [4]): 4.5 µM | SI RSV [CC50/EC50] [5]: SIIAV >2.2 SIRSV >3.9 broad spectrum [84] | SI IAV [CC50/EC50] (recIAV WSN-NanoLuc [6]): SIIAV >2.2 SIRSV >3.9 broad spectrum [84]

CN(CCOc1ccc(CC2SC(=O)NC2=O)cc1)c1ccccn1 (centres unmarked) [Rosiglitazone]
inhibition at 5 µM (recIAV WSN-NanoLuc [3]): 35 ± 5%

C[n+]1cc2c3c(ccc2c2ccc4cc5c(cc4c21)OCO5)OCO3 [Sanguinarine]
CC50 (PrestoBlue cell viability) (BEAS-2B cells): tox^d

O=[N+]([O-])c1ccc2c(c1)S(=O)(=O)C=C2 [Stattic]
EC50 [5]: 5.9 µM | SI IAV [CC50/EC50] (recIAV WSN-NanoLuc [6]): SIIAV 3 | EC50 (recIAV WSN-NanoLuc [6]): 3.3 µM | CC50 (BEAS-2B cells): 10 µM

CCN(CC)CCNC(=O)c1c(C)[nH]c(/C=C2\C(=O)Nc3ccc(F)cc32)c1C [Sunitinib]
CC50 (PrestoBlue cell viability) (BEAS-2B cells): tox^d

Cn1nnc2c(C(N)=O)ncn2c1=O [Temozolomide]
inhibition at 5 µM (recIAV WSN-NanoLuc [3]): 55 ± 3.2%

Nc1nc(N)c2nc(-c3ccccc3)c(N)nc2n1 [Triamterene]
CC50 (in vitro): > 10 µM | EC50 RSV A2-L19FD489E-fireSMASh [5]: inactive^e | EC50 IAV WSN-nanoLuc (recIAV WSN-NanoLuc [6]): inactive^e

CC(C)[C@]12O[C@H]1[C@@H]1O[C@]13[C@]1(O[C@H]1C[C@H]1C4=C(CC[C@@]13C)C(=O)OC4)[C@@H]2O [Triptolide]
CC50 (in vitro): 0.3 µM | EC50 (recRSV A2-L19F-renilla): 0.6 µM | EC50 (recIAV WSN-NanoLuc [4]): 0.15 µM | inhibition at 5 µM (recIAV WSN-NanoLuc [3]): 103 ± 1.2% | SI (CC50/EC50) value at dose-response testing (recIAV WSN-NanoLuc [6]): below two

CC[C@]1(O)C[C@H]2CN(CCc3c([nH]c4ccccc34)[C@@](C(=O)OC)(c3cc4c(cc3OC)N(C=O)[C@H]3[C@@](O)(C(=O)OC)[C@H](OC(C)=O)[C@]5(CC)C=CCN6CC[C@]43[C@@H]65)C2)C1 [Vincristine]
inhibition at 5 µM (recIAV WSN-NanoLuc [3]): 50 ± 2.9%

CC(=O)N[C@H]1[C@H]([C@H](O)[C@H](O)CO)OC(C(=O)O)=C[C@@H]1N=C(N)N [Zanamivir]
CC50 (in vitro): > 10 µM | EC50 (recIAV WSN-NanoLuc [4]): 0.02 µM | EC50 RSV A2-L19FD489E-fireSMASh [5]: Inactive | SI IAV [CC50/EC50] (recIAV WSN-NanoLuc [6]): SIIAV >500 IAV inhibitor [83]
